According to US4031244A, “Pharmaceutical compositions containing a 1-(2,6-dimethyl-phenoxy)-2-amino-alkane and method of use” (priority 1966, dated 1977):

Columns and labels:
[1] = system: warmblooded animals, such as rats and mice; test: Pharmacodynamic properties (anticonvulsive, antiarrhythmic, sedative side effects) in warm-blooded animals; type: in vivo; conditions: specific compounds
mouse = test: Anticonvulsive activity by the electroshock method of Tooman et al; type: in vivo; conditions: Mus musculus, read-out: Anticonvulsive ED50
Excerpt: (§1) The anticonvulsive activity of the compounds of the formula I and their non-toxic acid addition salts, as well as of certain isomers and homologs described in the prior art, was as certained by the electroshock method of Tooman et al, J. Neurophysiol.

[2] = as above; type: in vivo, mouse; conditions: in vivo; mouse; LD50 / ED50; read-out: Therapeutic ratio LD50 ED50
Excerpt: as §1

in vivo = conditions: po, mouse
Excerpt: as §1

SMILES | effectiveness as anticonvulsives [1] | ED50 (mouse) [mg/kg] | selectivity ratio [2] | LD50 (in vivo) [mg/kg]
CCCC(N)COc1c(C)cccc1C (stereo not shown) [1-(2',6'-dimethyl-phenoxy)-2-amino-pentane] | especially effective | – | – | –
Cc1cccc(C)c1OCC(C)N (stereo not shown) [A, 1-(2',6'-dimethyl-phenoxy)-2-amino-propane] | especially effective | 23 | – | –
CNCCOc1c(C)cccc1C [B, n-methyl-2-(2',6'-xylyloxy)-ethylamine] | – | 80 | 2.7 | 216
Cc1cccc(C)c1OCCN [C, 2-(2',6'-xylyloxy)-ethylamine] | – | 115 | 6.4 | 740
Cc1cccc(C)c1OCCCN [D, 3-(2',6'-xylyloxy)-propylamine] | – | 216 | 2.7 | 580
Cc1cccc(C)c1OCC(C)N.Cl (stereo not shown) [Example 1, 1-(2',6'-dimethyl-phenoxy)-2-amino-propane hydrochloride] | especially effective | – | – | –
